Reference: patent US11484543B2, “Compositions and methods for diagnosing and treating diseases and disorders associated with mutant KCNJ5” (The Rockefeller University, priority 2017, dated 2022)
Numbering of substitutions follows the chain as printed.

Legend:
[1] = in vivo; cited from earlier work
KCNJ3/KCNJ5^L168R = target: T1, KCNJ3/KCNJ5^L168R (Homo sapiens, UniProt P48544, L168R); test: Perforated whole-cell patch clamp, KCNJ3/KCNJ5^L168R heterotetramers in HEK293T cells; assay type: cell-based; conditions: 1 mM BaCl2, after 20 μM roxithromycin
T1 construct: GFP; expressed in transfected cells; host or cells: HEK293T (American Type Culture Collection), transient co-transfection
T1 sequence (P48544 1-419 L168R): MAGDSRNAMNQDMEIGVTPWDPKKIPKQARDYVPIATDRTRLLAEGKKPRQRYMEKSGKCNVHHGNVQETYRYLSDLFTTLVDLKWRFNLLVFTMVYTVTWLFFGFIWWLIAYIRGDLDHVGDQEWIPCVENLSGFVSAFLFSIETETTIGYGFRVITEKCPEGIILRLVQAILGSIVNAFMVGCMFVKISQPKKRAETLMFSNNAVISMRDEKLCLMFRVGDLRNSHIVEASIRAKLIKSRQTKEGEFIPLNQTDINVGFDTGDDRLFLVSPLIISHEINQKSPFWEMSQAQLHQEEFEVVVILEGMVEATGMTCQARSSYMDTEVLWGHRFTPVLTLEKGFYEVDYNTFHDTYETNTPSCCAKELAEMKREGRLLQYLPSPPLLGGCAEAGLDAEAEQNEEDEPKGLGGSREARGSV
T1 sequence (P48549 1-501 partner): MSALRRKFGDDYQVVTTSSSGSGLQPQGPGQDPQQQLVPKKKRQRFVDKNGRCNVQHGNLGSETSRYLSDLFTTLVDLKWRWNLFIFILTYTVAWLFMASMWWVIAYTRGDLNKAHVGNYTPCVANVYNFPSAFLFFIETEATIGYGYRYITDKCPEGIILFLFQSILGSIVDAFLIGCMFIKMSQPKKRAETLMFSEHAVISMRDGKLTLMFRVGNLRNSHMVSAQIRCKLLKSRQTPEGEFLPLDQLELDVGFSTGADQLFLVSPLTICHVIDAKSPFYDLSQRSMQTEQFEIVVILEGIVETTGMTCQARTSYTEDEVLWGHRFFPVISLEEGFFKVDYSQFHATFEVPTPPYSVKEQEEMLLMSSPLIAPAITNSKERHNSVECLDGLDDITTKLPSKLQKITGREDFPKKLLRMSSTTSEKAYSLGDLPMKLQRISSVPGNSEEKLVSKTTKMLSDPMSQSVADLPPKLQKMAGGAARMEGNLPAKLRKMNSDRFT
Method: (§1) HEK293T cells (American Type Culture Collection) were used for transient expression of GFP-tagged KCNJ5 or KCNJ3. The cells were grown in Dulbecco's modified Eagle medium (DMEM; Invitrogen) supplemented with 10% FBS (Invitrogen) in 5% CO2 and 95% air at 37° C. Cells were grown to 50-70% confluence for transfection, and the corresponding cDNAs (Choi et al., 2011, Science 331:768-772) were simultaneously applied to the cells using TurboFect transfection reagent according to the manufacturer's protocol (Fermentas). […]
(§2) Within 24 hr after transfection, the cells were treated with trypsin-containing medium (TrypLE Express) (Gibco) for 10 minutes to detach the cells. […] Fluorescence signal (an indication of positive transfection) was detected with an intensified video imaging system including a SIT 68 camera (Long Island Industries). […] After forming a high resistance seal (>2 GΩ), the membrane capacitance was monitored until the whole-cell patch configuration was formed. The cell membrane capacitance was measured and compensated. The K/cation currents were measured from −80 mV to 20 mV with 20 mV steps by an Axon 200A patch-clamp amplifier. The currents were low-pass filtered at 1 KHz and digitized by an Axon interface (Digidata 1200) and were analyzed using the pClamp software system 9 (Axon). […]

KCNJ3/KCNJ5^WT = target: T2, KCNJ3/KCNJ5^WT (Homo sapiens, UniProt P48544); test: Perforated whole-cell patch clamp, KCNJ3/KCNJ5^WT heterotetramers in HEK293T cells; assay type: cell-based; conditions: 1 mM BaCl2
T2 construct: GFP; expressed in transfected cells; host or cells: HEK293T (American Type Culture Collection), transient co-transfection
T2 sequence (P48544 1-419): T1 sequence (P48544 1-419 L168R) with R168L
T2 sequence (P48549 1-501 partner): T1 sequence (P48549 1-501 partner)
Method: as §1, §2

KCNJ5^L168R = target: T3, KCNJ5^L168R (Homo sapiens, UniProt P48544, L168R); test: Cell viability assay (ATP, CellTiter-Glo): rescue of KCNJ5^L168R-induced lethality in inducible HEK293 cells; assay type: cell-based
T3 construct: expressed in transfected cells
T3 sequence (P48544 1-419 L168R): T1 sequence (P48544 1-419 L168R)
Method: (§3) WT or mutant human KCNJ5 cDNAs (Choi et al., 2011, Science 331:768-772) were subcloned into the pcDNA5/FRT/TO vector using BamHI and HindIII. Single copies of WT or mutant human KCNJ5 cDNAs expressed under the control of tetracycline-inducible promoter were introduced into HEK293 cells using the Flp-in T-Rex System (Invitrogen) according to the manufacturer's instructions. Cells were grown in selective media containing 10% Tet-system approved FBS (Clontech) until induction.
Assay plates were centrifuged and incubated overnight at 37° C. 20 nL was transferred from the compound source plate to the cell assay plate using an Aquarius (Tecan) with a 384-well pin tool (V&P Scientific). The final concentration of compound for screening was 10 μM and the final DMSO concentration was 0.1%. 1 μL of tetracycline (final concentration 1 μg/mL) was added to compound containing and negative control wells by Multidrop Combi to induce expression. 1 μL of media was added to positive control wells. Assay plates were centrifuged and incubated for 72 hours at 37° C., 5% CO2. CellTiter-Glo (Promega) was used to measure cell viability in the assay wells according to the manufacturer's instructions. 10 μL/well of CellTiter-Glo reagent was added to the assay plates using a MultiDrop Combi. The plates were shaken on a Thermomixer R (Eppendorf) at 1100 rpm for 1 minute and incubated in the dark for 10 minutes at room temperature. Luminescence was read on an Envision plate reader (PerkinElmer) with 0.3 second sampling time per well. Raw data (luminescence counts per second) was normalized to percent effect by the formula 100−(((sample−negative control mean)/(positive control mean−negative control mean))*100).
Data was analyzed using the programs Excel (Microsoft) and Prism (GraphPad). Errors are SD unless otherwise indicated in the legend. Dose-response curves were fitted with a four-parameter logistic equation: F(x)=D+(A−D)/(1+(x/C)^B), with A=minimum inhibition B=Hill's slope C=inflection point D=maximum inhibition Synthesis of Macrolide Derivatives
Cellular ATP levels were measured as a proxy for cell viability, using a commercially available luciferase assay (Crouch et al., 1993, Proc. Natl. Acad. Sci. U.S.A. 109:2533-2538).
Conditions were designed to maximize reproducibility and the signal-to-background ratios (S/B) (Zhang et al., 1999, J. Biomol. Screen 4:67-73) comparing ATP level in uninduced and induced cells. Screening was performed in 384-well plates; compounds were added 24 hours after plating, and channel expression was induced immediately after compound addition. ATP levels were measured 72 hours after induction.

KCNJ5^WT = target: T4, KCNJ5^WT (Homo sapiens, UniProt P48544); test: Membrane potential assay (FLIPR dye) in inducible KCNJ5^WT HEK293 cells; assay type: cell-based
T4 construct: expressed in transfected cells
T4 sequence (P48544 1-419): T1 sequence (P48544 1-419 L168R) with R168L
Method: as §3, with “Single” for “WT or mutant human KCNJ5 cDNAs (Choi et al., 2011, Science 331:768-772) were subcloned into the pcDNA5/FRT/TO vector using BamHI and HindIII. Single”
20 μL of WT cells were plated into sterile black with clear bottom tissue culture-treated 384-well plates (Corning) at a density of 10000 cells/well using a Multidrop Combi. Assay plates were centrifuged at 500 rpm for 10 seconds and incubated overnight at 37° C. in a humidified 5% CO2 incubator. After the overnight incubation, 1 μL of tetracycline (final conc. 1 μg/mL) was added to all wells by Multidrop Combi to induce KCNJ5. Assay plates were centrifuged at 500 rpm for 10 seconds and incubated overnight at 37° C. in a humidified 5% CO2 incubator. The next day, 10 μL of medium was removed from each well using a PlateMate Plus (Thermo Scientific). 10 μL of Blue Formula FLIPR membrane potential dye (Molecular Devices) was added to cells using a Multichannel pipettor. Assay plates were incubated for 30 minutes. at 37° C. After incubation, 20 nL was transferred twice from the compound source plate to the cell assay plate using an Aquarius with a 384-well pin tool for a total transfer volume of 40 nL and a final DMSO concentration of 0.2%. 1 μL of 20 mM BaCl2 was added to positive control wells using a Multichannel pipettor. The assay plate was incubated 20 minutes at room temperature in the dark.
Changes in membrane potential were detected using a well-established fluorescence-based measure of membrane potential (FIG. 4).

KCNJ5^G151R = target: T5, KCNJ5^G151R (Homo sapiens, UniProt P48544, G151R); test: cell-based; assay type: cell-based
T5 construct: expressed in transfected cells
T5 sequence (P48544 1-419 G151R): T1 sequence (P48544 1-419 L168R) with G151R, R168L
Method in brief: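 Viability is read as cellular ATP by CellTiter-Glo luminescence 72 h later at 37 °C. Uninduced and induced untreated cells set 100% and 0% effect; curves use a 4-parameter logistic fit.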

[2] = 10-point dilution 20 to 0.0391 μM, N=3, four-parameter fit
[3] = tested as in FIG. 7 (FIGS. 9 and 10)

**Q.** With `C[C@]12CCC(=O)C=C1CC[C@@H]1[C@@H]2[C@@H](O)C[C@]2(C=O)[C@@H](C(=O)CO)CC[C@@H]12` [aldosterone] as the compound, how does the plasma half-life [1] read?
**A.** Its plasma half-life is roughly 30 min.

**Q.** What does the source list for `[Ba+2].[Cl-].[Cl-]` [barium, BaCl2]?
**A.** block of remaining KCNJ3/KCNJ5^L168R current (KCNJ3/KCNJ5^L168R): blocked; barium sensitivity of KCNJ3/KCNJ5^WT currents (KCNJ3/KCNJ5^WT): sensitive

**Q.** What does the source list for `CC[C@H]1OC(=O)[C@H](C)[C@@H](O[C@H]2C[C@@](C)(O)[C@@H](O)[C@H](C)O2)[C@H](C)[C@@H](O[C@@H]2O[C@H](C)C[C@H](N(C)C)[C@H]2O)[C@](C)(O)C[C@@H](C)C(=O)[C@H](C)[C@@H](O)[C@]1(C)O` [Erythromycin C, erythromycin C]?
**A.** IC50 (KCNJ5^L168R; [2]): 12.2 µM; L168R maximum inhibition (KCNJ5^L168R; [2]): 18.43%; L168R minimum inhibition (KCNJ5^L168R; [2]): 1.41%; WT IC50 (KCNJ5^WT; [2]): No fit; G151R maximum inhibition (KCNJ5^G151R; [2]): 75.00%; G151R minimum inhibition (KCNJ5^G151R; [2]): 6.72%; IC50 (KCNJ5^G151R; [2]): 9.19 µM

**Q.** What does the source list for “N-demethyl-8,9-anhydroerythromycin A 6,9-hemiacetal [PLUX36]”?
**A.** inhibition of KCNJ5^L168R by synthesized macrolide derivatives (KCNJ5^L168R; [3]): significant inhibition; inhibition of KCNJ5^WT by synthesized macrolide derivatives (KCNJ5^WT; [3]): no inhibition; inhibition of KCNJ5^G151R by synthesized macrolide derivatives (KCNJ5^G151R; [3]): significant inhibition
